Data published in article PMC6315349 (2018).

How the values were obtained:
Assay in all cases: fluorescence turn-on
[1] = system: RNA NAND/NOR gate (no inputs, 0-0) (RNA, aptamer) GGUUUGCAAACAUGCUUUGGAUGGUAACGAAUGACCAGCCCGAAAGGGCUGGUCCGACAUCCUUUGGGAAAUCCUUU; conditions: 100 mM NaCl, 10 mM MgCl2; 50 mM Tris pH 8.0, 22 °C; 1 μM RNA, 2 μM dye; output ON
[2] = system: OR gate + OR_input B (0-1) (DNA:RNA, aptamer) GGUUUCAACCUUUGCAAACAUGCUUUGGAUGGUAACGAAUGACCAGCCCGAAAGGGCUGGUCCGACAUCCUUUGGGAAAUCCUUUGGGUGCCGUUU/AAACGGCGTCCAAAGGATTTCCC; conditions: 100 mM NaCl, 10 mM MgCl2; 50 mM Tris pH 8.0, 22 °C; 1 μM RNA, 2 μM dye, 2 μM each input; output ON
[3] = system: NOR gate + NOR_input A + NOR_input B (1-1) (DNA:RNA, aptamer) GGUUUGCAAACAUGCUUUGGAUGGUAACGAAUGACCAGCCCGAAAGGGCUGGUCCGACAUCCUUUGGGAAAUCCUUU/CCATCCAAAGCATGTTTGCAAA/AAAGGATTTCCCAAAGGATGTCGGACC; conditions: 100 mM NaCl, 10 mM MgCl2; 50 mM Tris pH 8.0, 22 °C; 1 μM RNA, 2 μM dye, 2 μM each input; output OFF
[4] = system: OR gate + OR_input A (1-0) (DNA:RNA, aptamer) GGUUUCAACCUUUGCAAACAUGCUUUGGAUGGUAACGAAUGACCAGCCCGAAAGGGCUGGUCCGACAUCCUUUGGGAAAUCCUUUGGGUGCCGUUU/GCATGTTTGCAAAGGTTGAAA; conditions: 100 mM NaCl, 10 mM MgCl2; 50 mM Tris pH 8.0, 22 °C; 1 μM RNA, 2 μM dye, 2 μM each input; output ON
[5] = system: NOR gate + NOR_input B (0-1) (DNA:RNA, aptamer) GGUUUGCAAACAUGCUUUGGAUGGUAACGAAUGACCAGCCCGAAAGGGCUGGUCCGACAUCCUUUGGGAAAUCCUUU/AAAGGATTTCCCAAAGGATGTCGGACC; conditions: 100 mM NaCl, 10 mM MgCl2; 50 mM Tris pH 8.0, 22 °C; 1 μM RNA, 2 μM dye, 2 μM each input; output OFF
[6] = system: RNA AND/OR gate (no inputs, 0-0) (RNA, aptamer) GGUUUCAACCUUUGCAAACAUGCUUUGGAUGGUAACGAAUGACCAGCCCGAAAGGGCUGGUCCGACAUCCUUUGGGAAAUCCUUUGGGUGCCGUUU; conditions: 100 mM NaCl, 10 mM MgCl2; 50 mM Tris pH 8.0, 22 °C; 1 μM RNA, 2 μM dye; output OFF (<60% normalized)
[7] = system: OR gate + OR_input A + OR_input B (1-1) (DNA:RNA, aptamer) GGUUUCAACCUUUGCAAACAUGCUUUGGAUGGUAACGAAUGACCAGCCCGAAAGGGCUGGUCCGACAUCCUUUGGGAAAUCCUUUGGGUGCCGUUU/GCATGTTTGCAAAGGTTGAAA/AAACGGCGTCCAAAGGATTTCCC; conditions: 100 mM NaCl, 10 mM MgCl2; 50 mM Tris pH 8.0, 22 °C; 1 μM RNA, 2 μM dye, 2 μM each input; output ON
[8] = system: AND gate + AND_input A + AND_input B (1-1) (DNA:RNA, aptamer) GGUUUCAACCUUUGCAAACAUGCUUUGGAUGGUAACGAAUGACCAGCCCGAAAGGGCUGGUCCGACAUCCUUUGGGAAAUCCUUUGGGUGCCGUUU/GTAAGCTTTGGTTGA/AAACAGCGTCCAGAGGAT; conditions: 100 mM NaCl, 10 mM MgCl2; 50 mM Tris pH 8.0, 22 °C; 1 μM RNA, 2 μM dye, 2 μM each input; output ON
[9] = system: RNA half adder + AND_DNA inhibitor + XOR_DNA inhibitor (0-0) (DNA:RNA, aptamer) GGUGCCCGCUGACCGGAGACGGUCAAAUAGAGCACAGGAUGGUAACGAAUGACCAGCCCGAGGUCGCGACCUUCUUUUCCCUCGCGACUCGAAAUGUUUCUUUUCGAGGUCGCCCCGUAUCUGUCGAGUAGAGUGUGGGCUCGCACGCGGCUGCC/GGCGGCTGCCGCGCAGAGACGGUCGGGUCCAGAUAUUGGAUCUUUCGCCUUUUCGCGAUACGGGCCAACGAUGGGUUUUGAAGGUCGCGACAAGGGCUGGTCCGACAUCCCACACAAATAGAGTGTGGGCCGAGCAGCGGCACC/GGUGCCCGCUGACCGGAGACGGUCAAAUAGAGCACAGGAUGGUAACGAAUGACCAGCCCGAGGGCGACCUCGUUUUGUACCAGCAUCCUCUUCAUAAGUUUUGGCGAAAGAUCCCGUAUCUGUCGAGUAGAGUGUGGGCUCGCACGCGGCUGCC/GGCGGCUGCCGCGCAGAGACGGUCGGGUCCAGAUAUUGGGCGACCUCGUUUUCCGGGAUAUGGUCUCGGCCAACUUUUCGAGGUCGCCCAAGGGCUGGUCCGACAUCCCACACAAAUAGAGUGUGGGCCGAGCAGCGGCAGC/GGAUGCUGGUACUUUUGUUGGCCGAGACCAUAUCCCGGUUUUGAAACAUUUCGAGUCGCGAGGGUUUUCCCAUCGUUGGCCCGUAUCGCGUUUUCUUAUGAAGA/ATAACAGCGCGTAGGGCCACGCTGCCGCTGCTCGGCCCACACTCTATTTGACCGGGATGTCGGACCAGCTGGTCATTCCTTACCATCCCACACTCTATTTGACCGTCTCCGGTCAGCGGGCAGGCGAGCCCTACGCGCTGTTAT/GGCAGCCGCGTGTGCCGCTGGCTCGGCCACACTCTATTTGACCGTCCGGTGCGAGCTGCGCGGCGAGCCCTA; conditions: 22 °C, 1 μM RNA strands, 2 μM each inhibitor, 5 μM dye
[10] = system: NAND gate + NAND input B (0-1) (DNA:RNA, aptamer) GGUUUGCAAACAUGCUUUGGAUGGUAACGAAUGACCAGCCCGAAAGGGCUGGUCCGACAUCCUUUGGGAAAUCCUUU/TTGATTTCCCTTTGGT; conditions: 100 mM NaCl, 10 mM MgCl2; 50 mM Tris pH 8.0, 22 °C; 2 μM dye; fluorescence slightly higher than without input
[11] = system: NAND gate + NAND_input A (1-0) (DNA:RNA, aptamer) GGUUUGCAAACAUGCUUUGGAUGGUAACGAAUGACCAGCCCGAAAGGGCUGGUCCGACAUCCUUUGGGAAAUCCUUU/CTATAGCATGTTTGC; conditions: 100 mM NaCl, 10 mM MgCl2; 50 mM Tris pH 8.0, 22 °C; 2 μM dye; fluorescence lower than without input
[12] = system: AND gate + AND_input A (1-0) (DNA:RNA, aptamer) GGUUUCAACCUUUGCAAACAUGCUUUGGAUGGUAACGAAUGACCAGCCCGAAAGGGCUGGUCCGACAUCCUUUGGGAAAUCCUUUGGGUGCCGUUU/GTAAGCTTTGGTTGA …; conditions: 100 mM NaCl, 10 mM MgCl2; 50 mM Tris pH 8.0, 22 °C; 2 μM dye, 2 μM input; output OFF (<60% normalized)
[13] = system: NOR gate + NOR_input A (1-0) (DNA:RNA, aptamer) GGUUUGCAAACAUGCUUUGGAUGGUAACGAAUGACCAGCCCGAAAGGGCUGGUCCGACAUCCUUUGGGAAAUCCUUU/CCATCCAAAGCATGTTTGCAAA; conditions: 100 mM NaCl, 10 mM MgCl2; 50 mM Tris pH 8.0, 22 °C; 1 μM RNA, 2 μM dye, 2 μM each input; output OFF
[14] = system: AND gate + AND_input B (0-1) (DNA:RNA, aptamer) GGUUUCAACCUUUGCAAACAUGCUUUGGAUGGUAACGAAUGACCAGCCCGAAAGGGCUGGUCCGACAUCCUUUGGGAAAUCCUUUGGGUGCCGUUU/AAACAGCGTCCAGAGGAT; conditions: 100 mM NaCl, 10 mM MgCl2; 50 mM Tris pH 8.0, 22 °C; 2 μM dye, 2 μM input; output OFF (<60% normalized)
[15] = system: NAND gate + NAND_input A + NAND input B (1-1) (DNA:RNA, aptamer) GGUUUGCAAACAUGCUUUGGAUGGUAACGAAUGACCAGCCCGAAAGGGCUGGUCCGACAUCCUUUGGGAAAUCCUUU/CTATAGCATGTTTGC/TTGATTTCCCTTTGGT; conditions: 100 mM NaCl, 10 mM MgCl2; 50 mM Tris pH 8.0, 22 °C; 2 μM dye; output OFF (<60% normalized)

binding [1]	binding [2]	binding [3]	binding [4]	binding [5]	binding [6]	binding [7]	binding [8]	binding ([9]; low fluorescence at 650 nm)	binding [10]	binding [11]	binding [12]	binding [13]	binding [14]	binding [15]	binding ([9]; low fluorescence at 510 nm)	Structure (SMILES)
yes	yes	no	yes	no	no	yes	yes	no	yes	yes	weak	no	weak	weak		CN(C)c1ccc(C(=C2C=CC(=[N+](C)C)C=C2)c2ccccc2)cc1
															no	CC1=N/C(=C\c2cc(F)c(O)c(F)c2)C(=O)N1C
